Measurements: PMC12715794, “Comparative Characterization of Oxidative Enzymes for Arabinoxylan and Protein Cross-Linking via Ferulic Acid and Tyrosine in Model Systems” (Journal of Agricultural and Food Chemistry, 2025)
Where a name gives a salt, the structure may show the parent alone. Read-outs that look alike come from different tables or passages of the source.

Tests used:
[1] = tested on: T1, TvL; laccase from Trametes versicolor; assay: HTyr-MBTH spectrophotometric assay, […] nm; assay type: biochemical; settings: at pH and temperature optima; McIlvaine buffer; excess MBTH, 2% DMF
T1 construct: gene LCC2

[2] = tested on: T2, AbT; tyrosinase from Agaricus bisporus; assay: HTyr-MBTH spectrophotometric assay, […] nm; assay type: biochemical; settings: at pH and temperature optima; McIlvaine buffer; excess MBTH, 2% DMF
T2 construct: gene PPO3

[3] = tested on: T1, TvL; laccase from Trametes versicolor; settings: at pH and temperature optima; McIlvaine buffer
[4] = tested on: T1, TvL; laccase from Trametes versicolor; settings: at pH and temperature optima; McIlvaine buffer; enzyme alone
[5] = target: T3, AnG; glucose oxidase from Aspergillus niger (Aspergillus niger, UniProt P13006); assay: ABTS-HrP-coupled spectrophotometric assay, […] nm; assay type: biochemical; settings: 16 mM glucose, 1 mM ABTS, excess HrP (0.7 mg/mL); McIlvaine buffer
T3 construct: gene gox

[6] = tested on: T2, AbT; tyrosinase from Agaricus bisporus; assay: spectrophotometric, product formation at […] nm; assay type: biochemical; settings: at pH and temperature optima; McIlvaine buffer; enzyme alone

T3 sequence (P13006 23-605): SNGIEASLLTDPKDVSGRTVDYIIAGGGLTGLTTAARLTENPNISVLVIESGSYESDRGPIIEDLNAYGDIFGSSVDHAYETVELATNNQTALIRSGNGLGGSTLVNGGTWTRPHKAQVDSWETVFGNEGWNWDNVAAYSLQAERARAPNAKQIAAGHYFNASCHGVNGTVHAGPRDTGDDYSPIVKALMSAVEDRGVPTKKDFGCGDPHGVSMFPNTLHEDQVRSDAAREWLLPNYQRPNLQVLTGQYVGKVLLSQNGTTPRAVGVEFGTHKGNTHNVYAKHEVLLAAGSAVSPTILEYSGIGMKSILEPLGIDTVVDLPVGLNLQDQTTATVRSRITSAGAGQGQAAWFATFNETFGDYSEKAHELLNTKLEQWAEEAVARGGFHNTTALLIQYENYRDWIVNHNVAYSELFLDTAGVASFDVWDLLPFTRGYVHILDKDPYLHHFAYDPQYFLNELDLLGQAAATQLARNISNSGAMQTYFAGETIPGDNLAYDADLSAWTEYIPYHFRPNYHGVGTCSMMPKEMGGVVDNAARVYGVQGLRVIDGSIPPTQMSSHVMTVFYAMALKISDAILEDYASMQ

OCCc1ccc(O)c(O)c1 [HTyr, hydroxytyrosol]
Km [1]: 73 µM | Km [2]: 44 µM

CCn1c(=NN=c2sc3cc(S(=O)(=O)O)ccc3n2CC)sc2cc(S(=O)(=O)O)ccc21 [ABTS, 2,2′-azino-bis(3-ethylbenzothiazoline-6-sulfonic acid) diammonium salt]
Km [3]: 36 µM

COc1cc(/C=C/C(=O)O)ccc1O [FA, trans-ferulic acid]
Km [4]: 57 µM

OC[C@H]1OC(O)[C@H](O)[C@@H](O)[C@@H]1O (stereo partly drawn) [D-glucose]
ABTS-HrP-coupled spectrophotometric assay, 415 nm [5]: For AnG, glucose as a substrate was converted to H2O2

N[C@@H](Cc1ccc(O)cc1)C(=O)O [Y, L-tyrosine]
Km [6]: 504 µM
